Assay results reported in patent US11932599B2, “Ferroptosis inducing compound, compositions comprising the same, and methods of inducing ferroptosis” (UNIVERSITY OF MASSACHUSETTS, priority 2021, dated 2024).

Assays:
HT-1080 cells [1] = assay: Cell viability assay in HT-1080 cells, cotreatment with cell-death inhibitors; type: cell-based, human; details: HT-1080, 48 h; for EC50: Homo sapiens, read-out: EC50 (μM) of FIN56 + inhbitor
HT-1080 cells [2] = assay: Cell viability assay (Alamar Blue), cytotoxicity in HT-1080 cells; type: cell-based, human
Protocol: Cell lines and media. In the following example, HT-1080 (Human fibrosarcoma harboring NrasQ61K) cells (obtained from ATCC) were grown in DMEM high-glucose media with 1% non-essential amino acids (Life Technologies) and 10% FBS. 143B cells were grown in DMEM high-glucose media with 1% glutamine and 10% FBS. Calu-1 cells were grown in McCoy's 5A media (Life Technologies) supplemented with 10% FBS. All the cell lines were grown at 37° C. under 5% CO2. Cell lines were not tested for mycoplasma. In addition, the panel of four lung cancer (NCI-H23; SK-Mes-1; Calu6 and A549) were purchased from ATCC. They were cultured according to the ATCC protocol of each cell line. The non-malignant breast epithelial cells (MCF10A) were maintained in DMEM/F12 medium supplemented with 5% horse serum, epidermal growth factor (20 ng/ml), insulin (10 μg/ml), hydrocortisone ([…]), cholera toxin (100 ng/ml), and penicillin/streptomycin.
Cell viability assay. 9,000 cells per 100 μl were seeded in each well in 96-well plates. Lethal compounds were dissolved in DMSO. In the mother plates, DMSO stock of each compound was further diluted with media to create 20 μM or 10 μm as highest concentrations, respectively and a twofold, 9-point dilution series was prepared. Cells were seeded for 24 h and media were replaced by the mother plate drug-dilution media. When ferroptosis inhibitors (for example, 500 nM Ferrostatin-1, 100 μM α-tocopherol, 152 μM deferoxamine) were used in cotreatments with lethal inducers, they were supplemented to cell culture when the lethal compounds were added, and the cells were then incubated for 48 h. When other cell-death-modulating compounds (100 nM sodium selenite) were used in cotreatments, they were supplemented to cell culture for 24 h before lethal compounds were added to cell culture, after which cells were further incubated for 48 h at 37° C. under 5% CO2. On the day of the viability measurement, we added 25 μl per well of 50% Alamar Blue diluted in media (Life Technologies) and further incubated the cells at 37° C. for 6 h. Fluorescence intensity (excitation/emission: 540/590) was measured with a Victor 3 plate reader (PerkinElmer), and the normalized viability was calculated as VL=(IL−I0)/(IV−I0), where VL is the normalized viability, I0 is the raw fluorescence intensities from the wells containing media, IV is the cells treated with a vehicle (negative control), and IL is the cells with the lethal compound (L), respectively. The viability was typically measured in at least biological duplicate. A representative dose-response curve, the mean and standard error of normalized viability from one replicate were plotted.
Statistical analysis and data visualization. Dose-response curve plotting and EC50 computation were performed with Prism 6.0c (GraphPad Software).
Various compounds were selected for analysis of their cytotoxicity in HT-1080 cells according to the procedure described above.

[3] = HT-1080 cells, compound alone, read-out: EC 50
[4] = Homo sapiens, HT-1080, HT-1080 cells, compound alone, read-out: EC 50

What does the source list for `O=S(=O)(NC1CCCCC1)c1ccc2c(c1)C(=NO)c1cc(S(=O)(=O)NC3CCCCC3)ccc1-2` [FIN56, reference compound]?
Slectivity in fold [EC50 (FIN56 + inhibitor)/ EC50 inhbitor] (HT-1080 cells [1]; DFOM (152 μM)): >60 fold; Slectivity in fold [EC50 (FIN56 + inhibitor)/ EC50 inhbitor] (HT-1080 cells [1]; Fer 1 (500 nM)): >90 fold; Slectivity in fold [EC50 (FIN56 + inhibitor)/ EC50 inhbitor] (HT-1080 cells [1]; ZVAD 45 μM): 0.6 fold; blocking of the compound's lethality by the apoptosis inhibitor pathway (ZVAD) (HT-1080 cells [1]; ZVAD 45 μM): did not block; Slectivity in fold [EC50 (FIN56 + inhibitor)/ EC50 inhbitor] (HT-1080 cells [1]; aToc (100 μM)): 34.8 fold; EC50 (HT-1080 cells [1]; cotreated with DFOM (152 μM)): > 20 µM; EC50 (HT-1080 cells [1]; cotreated with Fer 1 (500 nM)): > 30 µM; EC50 (HT-1080 cells [1]; cotreated with ZVAD (45 μM)): 0.196 µM; EC50 (HT-1080 cells [1]; cotreated with aToc (100 μM)): 11.5 µM; EC50 (HT-1080 cells [2]; [3]): 0.326 µM; EC50 (HT-1080 cells [2]; Homo sapiens, HT-1080, 48 h, HT-1080 cells, 48 hour incubation, no inhibitor, read-out: EC50 (μM) of FIN56): 0.328 µM; EC50 (HT-1080 cells [2]; [4]): 0.328 µM

With `N#CC1c2cc(S(=O)(=O)NC3CCCCC3)ccc2-c2ccc(S(=O)(=O)NC3CCCCC3)cc21` [MH1013, 9-cyano-N^2,N^7-dicyclohexyl-9H-fluorene-2,7-disulfonamide] as the compound, how does the EC50 (HT-1080 cells [2]; [4]) read?
The EC50 was 13.4 µM.

With `C#CCON=C1c2cc(S(=O)(=O)NC3CCCCC3)ccc2-c2ccc(S(=O)(=O)NC3CCCCC3)cc21` [TKD1020, N^2,N^7-dicyclohexyl-9-((prop-2-yn-1-yloxy)imino)-9H-fluorene-2,7-disulfonamide] as the compound, how does the EC50 (HT-1080 cells [2]; [4]) read?
The EC50 was 10.8 µM.

Which EC50 (HT-1080 cells [2]; [3]) does the source give for `O=S(=O)(NC12CC(C1)C2)c1ccc2c(c1)C(=NO)c1cc(S(=O)(=O)NC34CC(C3)C4)ccc1-2` [TKD1026, N^2,N^7-di(bicyclo[1.1.1]pentan-1-yl)-9-(hydroxyimino)-9H-fluorene-2,7-disulfonamide] here?
Its EC50 is 1.7 µM.

And the EC50 (HT-1080 cells [2]; [4])?
The EC50 was less than 2 µM.

With `O=S(=O)(NCCF)c1ccc2c(c1)C(=NO)c1cc(S(=O)(=O)NCCF)ccc1-2` [TKD1027, N^2,N^7-bis(2-fluoroethyl)-9-(hydroxyimino)-9H-fluorene-2,7-disulfonamide] as the compound, how does the EC50 (HT-1080 cells [2]; [4]) read?
The EC50 was greater than 20 µM.

For `CNS(=O)(=O)c1ccc2c(c1)C(=NO)c1cc(S(=O)(=O)NC)ccc1-2` [TKD1034A, 9-(hydroxyimino)-N^2,N^7-dimethyl-9H-fluorene-2,7-disulfonamide], which EC50 (HT-1080 cells [2]; [4]) is on record?
The EC50 was 12.1 µM.
